From patent US20250026724A1, “(1,4,5-TRISUBSTITUTED 1H-PYRAZOL-3-YL)OXY-2-ALKYLTHIOALKYL ACIDS AND -ALKYL ACID DERIVATIVES, SALTS THEREOF AND USE THEREOF AS ACTIVE HERBICIDAL INGREDIENTS” (BAYER AKTIENGESELLSCHAFT, priority 2021, published 2025)

Columns and labels:
Experiment in all cases: Post-emergence herbicidal action, greenhouse pot trial
Type in all cases: in vivo
[1] = tested on: Abutilon theophrasti (ABUTH); settings: Abutilon theophrasti, 504 h, visual rating after about 3 weeks; for pest or weed control at 80 g/ha: read-out: Post-emergence effect at 80 g/ha against ABUTH in %; for pest or weed control at 320 g/ha: read-out: Post-emergence effect at 320 g/ha against ABUTH in %
Outline: (§1)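 Sandy loam pots, greenhouse; one-leaf stage (2–3 wk after sowing); WP/EC in water, 0.5% additive, 600 l/ha spray volume; ≤320 g/ha; visual score vs untreated at ~3 wk, 0–100%.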

[2] = tested on: Alopecurus myosuroides (ALOMY); settings: visual rating after about 3 weeks; for pest or weed control at 320 g/ha: Alopecurus myosuroides, 504 h, read-out: Post-emergence effect at 320 g/ha against ALOMY in %
Outline: as §1

[3] = tested on: Amaranthus retroflexus (AMARE); settings: visual rating after about 3 weeks; for pest or weed control at 80 g/ha / pest or weed control at 320 g/ha: Amaranthus retroflexus, 504 h; for pest or weed control at 80 g/ha: read-out: Post-emergence effect at 80 g/ha against AMARE in %; for pest or weed control at 320 g/ha: read-out: Post-emergence effect at 320 g/ha against AMARE in %
Outline: as §1

[4] = tested on: Avena fatua (AVEFA); settings: visual rating after about 3 weeks; for pest or weed control at 320 g/ha: Avena fatua, 504 h, read-out: Post-emergence effect at 320 g/ha against AVEFA in %
Outline: as §1

[5] = tested on: Bassia scoparia (KCHSC); settings: 320 g/ha
Outline: as §1

[6] = tested on: Digitaria sanguinalis (DIGSA); settings: visual rating after about 3 weeks; for pest or weed control at 320 g/ha: Digitaria sanguinalis, 504 h, read-out: Post-emergence effect at 320 g/ha against DIGSA in %
Outline: as §1

[7] = tested on: Echinochloa crus-galli (ECHCG); settings: Echinochloa crus-galli, 504 h, visual rating after about 3 weeks; for pest or weed control at 80 g/ha: read-out: Post-emergence effect at 80 g/ha against ECHCG in %; for pest or weed control at 320 g/ha: read-out: Post-emergence effect at 320 g/ha against ECHCG in %
Outline: as §1

[8] = tested on: Lolium rigidum (LOLRI); settings: visual rating after about 3 weeks; for pest or weed control at 320 g/ha: Lolium rigidum, 504 h, read-out: Post-emergence effect at 320 g/ha against LOLRI in %
Outline: as §1

[9] = tested on: Matricaria inodora (MATIN); settings: Tripleurospermum inodorum, 504 h, visual rating after about 3 weeks; for pest or weed control at 80 g/ha: read-out: Post-emergence effect at 80 g/ha against MATIN in %; for pest or weed control at 320 g/ha: read-out: Post-emergence effect at 320 g/ha against MATIN in %
Outline: as §1

[10] = tested on: Pharbitis purpurea (PHBPU); settings: visual rating after about 3 weeks; for pest or weed control at 80 g/ha / pest or weed control at 320 g/ha: Ipomoea purpurea, 504 h; for pest or weed control at 80 g/ha: read-out: Post-emergence effect at 80 g/ha against PHBPU in %; for pest or weed control at 320 g/ha: read-out: Post-emergence effect at 320 g/ha against PHBPU in %
Outline: as §1

[11] = tested on: Polygonum convolvulus (POLCO); settings: visual rating after about 3 weeks; for pest or weed control at 80 g/ha / pest or weed control at 320 g/ha: Fallopia convolvulus, 504 h; for pest or weed control at 80 g/ha: read-out: Post-emergence effect at 80 g/ha against POLCO in %; for pest or weed control at 320 g/ha: read-out: Post-emergence effect at 320 g/ha against POLCO in %
Outline: as §1

[12] = tested on: Setaria viridis (SETVI); settings: visual rating after about 3 weeks; for pest or weed control at 320 g/ha: Setaria viridis, 504 h, read-out: Post-emergence effect at 320 g/ha against SETVI in %
Outline: as §1

[13] = tested on: Viola tricolor (VIOTR); settings: Viola tricolor, 504 h, read-out: Post-emergence effect against VIOTR
Outline: as §1

Row | SMILES | pest or weed control at 80 g/ha [1] [%] | pest or weed control at 320 g/ha [1] [%] | pest or weed control at 320 g/ha [2] [%] | pest or weed control at 80 g/ha [3] [%] | pest or weed control at 320 g/ha [3] [%] | pest or weed control at 320 g/ha [4] [%] | Post-emergence effect against KCHSC [5] [%] | Post-emergence effect at 80 g/ha against DIGSA in % [6] [%] | pest or weed control at 320 g/ha [6] [%] | pest or weed control at 80 g/ha [7] [%] | pest or weed control at 320 g/ha [7] [%] | pest or weed control at 320 g/ha [8] [%] | pest or weed control at 80 g/ha [9] [%] | pest or weed control at 320 g/ha [9] [%] | Post-emergence effect at 20 g/ha against PHBPU in % [10] [%] | pest or weed control at 80 g/ha [10] [%] | pest or weed control at 320 g/ha [10] [%] | pest or weed control at 80 g/ha [11] [%] | pest or weed control at 320 g/ha [11] [%] | pest or weed control at 320 g/ha [12] [%] | other results
1 | COC(=O)C(Oc1nn(-c2ncccc2F)c(-c2ccc(F)nc2)c1Br)SC (single isomer, unassigned) [Example I-26] | 80 | 80 | 90 | 80 | 90 | 90 | 80 | 90 | 90 | 90 | 90 | 90 | 90 | 90 | 80 | 80 | 90 | 80 | 90 | 80 | Post-emergence effect at 80 g/ha against ALOMY in % ([2]; 80 g/ha): 80%; Post-emergence effect at 80 g/ha against AVEFA in % ([4]; 80 g/ha): 80%; Post-emergence effect at 20 g/ha against POLCO in % ([11]; 20 g/ha): 80%; pest or weed control at 80 g/ha [13]: 90%; pest or weed control at 320 g/ha [13]: 90%
2 | CCOC(=O)C(Oc1nn(-c2ncccc2F)c(-c2ccc(F)nc2)c1Br)SC (single isomer, unassigned) [Example I-28] | 80 | 80 | 90 | 90 | 90 | 80 | 80 | 80 | 90 | 90 | 90 | 90 | 80 | 90 | 80 | 90 | 90 | 90 | 90 | 90 | Post-emergence effect at 20 g/ha against AMARE in % ([3]; 20 g/ha): 80%; Post-emergence effect at 80 g/ha against LOLRI in % ([8]; 80 g/ha): 90%; Post-emergence effect at 80 g/ha against SETVI in % ([12]; 80 g/ha): 80%; pest or weed control at 80 g/ha [13]: 80%; pest or weed control at 320 g/ha [13]: 90%
